Here are results for 14 molecules from patent publication US11560372B2, “Heterocyclic compounds useful as modulators of acetylcholine receptors” (TAKEDA PHARMACEUTICAL COMPANY LIMITED, priority 2017, dated 2023).

In data set [1] the target is T1, human M1 receptor (hCHRM1) (Homo sapiens, UniProt P11229).
T1 construct: expressed in transfected cells
T1 sequence (P11229 1-460): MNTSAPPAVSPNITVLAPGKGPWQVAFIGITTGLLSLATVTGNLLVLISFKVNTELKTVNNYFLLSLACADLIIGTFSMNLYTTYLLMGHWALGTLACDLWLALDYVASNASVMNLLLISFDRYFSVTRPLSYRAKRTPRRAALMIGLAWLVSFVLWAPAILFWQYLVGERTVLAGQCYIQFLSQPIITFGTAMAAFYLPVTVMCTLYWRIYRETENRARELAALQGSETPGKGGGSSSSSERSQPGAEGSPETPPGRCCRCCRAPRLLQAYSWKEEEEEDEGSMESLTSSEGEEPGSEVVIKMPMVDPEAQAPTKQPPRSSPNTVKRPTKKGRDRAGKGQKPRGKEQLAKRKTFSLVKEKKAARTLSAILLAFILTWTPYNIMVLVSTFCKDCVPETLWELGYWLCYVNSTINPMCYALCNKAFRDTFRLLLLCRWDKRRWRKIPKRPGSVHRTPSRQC
As to the kind of experiment: Measurement of M1 receptor positive allosteric modulator (M1PAM) activity, calcium fluorescence in CHO-K1 cells. The data set is classed as cell-based. The following applies: for activity (%) at 10 μM: 10 μM test compound, 100% = acetylcholine final concentration 1 μM, 0% = DMSO; for EC50: inflection point of concentration-dependent curve, in the presence of acetylcholine at EC20 concentration (final 0.8-1.0 nM), read-out: IP value. The protocol:
Measurement of M1 Receptor Positive Allosteric Modulator (M1PAM) Activity
The activity of a test compound in the presence of acetylcholine at EC20 concentration (final concentration 0.8-1.0 nM), which affords an action corresponding to about 20% of the maximum activity, was measured as PAM activity. The method is as follows. CHO-K1 cells stably expressing a human M1 receptor (hCHRM1) were plated on a 384-well black clear bottom plate (BD Falcon) at 5,000 cells/well, and cultured in an incubator at 37° C., 5% CO2 for 1 day. The medium in the cell plate was removed, and assay buffer A containing calcium indicator (Recording medium (DOJINDO LABORATORIES), 0.1% BSA (Wako Pure Chemical Industries, Ltd.), 2.5 μg/mL Fluo-4 AM (DOJINDO LABORATORIES), 0.08% Pluronic F127 (DOJINDO LABORATORIES), 1.25 mM probenecid (DOJINDO LABORATORIES)) was added at 30 μL/well. The cells were left standing in the incubator at 37° C., 5% CO2 for 30 min, and further left standing at room temperature for 30 min. A test compound prepared by diluting with assay buffer B (HBSS (Invitrogen), 20 mM HEPES (Invitrogen), 0.1% BSA) containing 3.2-4.0 nM acetylcholine was added at 10 μL/well, and the fluorescence was measured by FDSS/pCELL (Hamamatsu Photonics K.K.) for 1 min every for 1 second. With the definition that the amount of change in the fluorescence on addition of acetylcholine (final concentration 1 μM) is 100% and that on addition of DMSO instead of a test compound is 0%, the activity (%) of the test compound was calculated, and the inflection point in the concentration-dependent curve of the test compound was calculated as IP values.

Another data set deals with T2, MDR1 (Homo sapiens, UniProt P08183).
T2 construct: expressed in transfected cells
T2 sequence (P08183 whole entry): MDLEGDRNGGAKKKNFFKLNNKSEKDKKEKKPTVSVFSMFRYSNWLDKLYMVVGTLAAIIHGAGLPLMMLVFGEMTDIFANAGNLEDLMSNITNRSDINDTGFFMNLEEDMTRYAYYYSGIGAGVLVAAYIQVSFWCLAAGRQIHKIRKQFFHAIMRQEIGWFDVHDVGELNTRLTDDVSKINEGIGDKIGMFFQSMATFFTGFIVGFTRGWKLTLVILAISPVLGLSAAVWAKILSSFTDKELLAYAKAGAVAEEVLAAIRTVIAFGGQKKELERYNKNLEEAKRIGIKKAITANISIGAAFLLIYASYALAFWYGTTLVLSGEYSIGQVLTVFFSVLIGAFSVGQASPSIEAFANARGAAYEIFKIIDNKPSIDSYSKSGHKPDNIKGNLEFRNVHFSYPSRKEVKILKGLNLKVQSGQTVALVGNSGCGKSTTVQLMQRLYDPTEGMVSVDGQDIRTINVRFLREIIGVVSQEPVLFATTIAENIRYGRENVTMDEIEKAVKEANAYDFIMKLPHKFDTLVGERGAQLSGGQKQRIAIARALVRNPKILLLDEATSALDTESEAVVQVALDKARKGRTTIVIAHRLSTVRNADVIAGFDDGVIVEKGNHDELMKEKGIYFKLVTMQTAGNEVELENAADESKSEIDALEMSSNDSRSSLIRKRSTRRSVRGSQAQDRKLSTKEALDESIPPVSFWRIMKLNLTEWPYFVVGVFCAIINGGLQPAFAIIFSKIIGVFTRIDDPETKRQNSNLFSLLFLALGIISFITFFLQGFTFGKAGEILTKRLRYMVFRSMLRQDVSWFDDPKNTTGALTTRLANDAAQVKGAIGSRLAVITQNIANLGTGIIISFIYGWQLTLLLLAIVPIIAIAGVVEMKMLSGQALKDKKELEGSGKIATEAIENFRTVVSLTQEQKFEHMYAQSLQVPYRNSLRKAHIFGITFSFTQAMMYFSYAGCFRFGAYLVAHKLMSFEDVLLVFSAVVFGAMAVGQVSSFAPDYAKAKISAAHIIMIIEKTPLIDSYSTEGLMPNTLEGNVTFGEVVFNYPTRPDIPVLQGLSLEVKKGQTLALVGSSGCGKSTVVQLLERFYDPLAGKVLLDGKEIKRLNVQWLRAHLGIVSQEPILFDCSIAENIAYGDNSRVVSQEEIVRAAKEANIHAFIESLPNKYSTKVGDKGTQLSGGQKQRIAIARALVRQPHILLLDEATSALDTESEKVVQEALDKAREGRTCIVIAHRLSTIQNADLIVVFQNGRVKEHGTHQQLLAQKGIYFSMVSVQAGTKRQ
Briefly: MDR1 membrane permeability test. The data set is classed as in vitro ADME. As to conditions: pH 7.4, efflux ratio (ER), Papp B to A / A to B, human MDR1-expressing LLC-PK1 cells, read-out: MDR1 substrate screening 1 μM (MDRSUB1)/Ratio (NUMBER). How it is done: MDR1 Membrane Permeability Test
When MDR1 is expressed in excess in LLC-PK1 cell, which is a polar cell, MDR1 is localized in apical membrane (A), thus promoting transcellular transport from the basement membrane side (B) toward direction A. When a ratio to the transcellular transport in the opposite direction is taken and a ratio to a control cell in which a mock vector has been introduced is further taken, an efflux ratio of MDR1 to simple diffusion (corrected efflux ratio) is calculated. Similarly, when a brain/plasma concentration ratio in Mdr1(−/−) mouse is divided by a brain/plasma concentration ratio in wild-type mouse, an efflux ratio of Mdr1 to simple diffusion in BBB (Kp, brain ratio, higher value means lower central nervous system permeability) is calculated. Adachi Y. et al. (Reference 1) has reported a positive correlation between corrected efflux ratio and Kp, brain ratio (FIG. 5(C)), and efflux ratio in MDR1 expressing cell and Kp, brain ratio (FIG. 5(B)).
To confirm the central nervous system permeability of the compounds of the present invention, a MDR1 membrane permeability test was performed by the following method.
Human MDR1-expressing LLC-PK1 cells were cultured according to the report of Takeuchi et al. (Reference 2). Human MDR1-expressing LLC-PK1 cells were cultured in 10% fetal bovine serum (Invitrogen), 500 μg/ml G418 (Invitrogen), 150 ng/ml colchicine-containing M199 medium (Invitrogen) under 5% CO2 conditions at 37° C.
Transcellular transport was performed according to the report of Sugimoto et al. (Reference 3). The cells were cultured for 3 days on HTS Transwell (registered trademark) 96 well permeable support (pore size 0.4 μm, 0.143 cm^2 surface area, Corning Life Sciences) having polyethylene terephthalate membrane on which the cells had been seeded at 3.45×10^4 cells/well. After preincubation in M199 medium (containing 10 mmol/L HEPES, 1% BSA, pH 7.4) for 30 min, a drug solution (10 μmol/L digoxin, 200 μmol/L LY, […]) dissolved in M199 medium was added to the apical side or basolateral side of the Transwell by 75 or 250 μL each and the cells were cultured under 5% CO2 conditions at 37° C. After 1 hr, the sample was collected from the side opposite to the side where the drug solution was added, and the concentration of the test compound was measured by LC-MS/MS. As an internal standard substance, 100 ng/mL alprenolol and diclofenac were used. The analysis conditions were as follows.
Papp, A to B and Papp, B to A (apparent permeability) were calculated from the formula (1), and the efflux ratio (ER) was calculated from the formula (2).

Structures are written as SMILES.

Take `Cc1c(Cc2ccc(C(=O)NC3(C)COC3)c(F)c2)cc2c(=O)n([C@H]3CCOC[C@@H]3O)cnc2c1C` [Example 65, 1,5-anhydro-2,3-dideoxy-3-(6-(3-fluoro-4-((3-methyloxetan-3-yl)carbamoyl)benzyl)-7,8-dimethyl-4-oxoquinazolin-3 (4H)-yl)-L-threo-pentitol]: in data set [1], the “activity (%) at 10 μM” value stood at 109% and the EC50 was found to be 3 nM. Besides, the efflux ratio at 1 hr, 1 μM on MDR1 came to 15.
The like results for `Cc1c(Cc2ccc(-c3cnn(C)c3)nc2)cc2c(=O)n([C@H]3CCOC[C@@H]3O)nnc2c1Cl` [Example 54, 1,5-anhydro-3-(8-chloro-7-methyl-6-((6-(1-methyl-1H-pyrazol-4-yl)pyridin-3-yl)methyl)-4-oxo-1,2,3-benzotriazin-3 (4H)-yl)-2,3-dideoxy-L-threo-pentitol] were, in that order, 106%, 0.99 nM and 9.5.
Turning to `Cc1cc(-c2ccc(Cc3cc4c(=O)n([C@H]5CCOC[C@@H]5O)cnc4c(C)c3C)cc2)cnn1` [Example 4, 1,5-anhydro-2,3-dideoxy-3-(7,8-dimethyl-6-(4-(6-methylpyridazin-4-yl)benzyl)-4.-oxoquinazolin-3(4H)-yl)-L-threo-pentitol], in data set [1], the “activity (%) at 10 μM” value is given as 101% and the EC50 came out at 2 nM. For the same molecule, at MDR1, the efflux ratio at 1 hr, 1 μM amounted to 5.7.
The like results for `Cc1c(Cc2ccc(C(=O)NCCO)cc2)cc2c(=O)n([C@H]3CCOC[C@@H]3O)cnc2c1C` [Example 50, 1,5-anhydro-2,3-dideoxy-3-(6-(4-((2-hydroxyethyl)carbamoyl)benzyl)-7,8-dimethyl-4-oxoquinazolin-3 (4H)-yl)-L-threo-pentitol] were, in that order, 103%, 0.8 nM and 13.
The matching figures for `Cc1c(Cc2ccc(C(=O)NCCN3CCCC3=O)c(F)c2)cc2c(=O)n([C@H]3CCOC[C@@H]3O)cnc2c1C` [Example 77, 1,5-anhydro-2,3-dideoxy-3-(6-(3-fluoro-4-((2-(2-oxopyrrolidin-1-yl)ethyl)carbamoyl)benzyl)-7,8-dimethyl-4-oxoquinazolin-3 (4H)-yl)-L-threo-pentitol]: 107%, 2 nM and 32.
The like results for `Cc1c(Cc2ccc(C(=O)NC3CS(=O)(=O)C3)c(F)c2)cc2c(=O)n([C@H]3CCOC[C@@H]3O)cnc2c1C` [Example 83, 1,5-anhydro-2,3-dideoxy-3-(6-(4-((1,1-dioxidethietan-3-yl)carbamoyl)-3-fluorobenzyl)-7,8-dimethyl-4-oxoquinazolin-3 (4H)-yl)-L-threo-pentitol] were, in that order, 109%, 1.5 nM and 19.
With `Cc1c(Cc2ccc(-c3cn(C)nn3)nc2)cc2c(=O)n([C@H]3CCOC[C@@H]3O)nnc2c1C` [Example 62, 1,5-anhydro-2,3-dideoxy-3-(7,8-dimethyl-6-((6-(1-methyl-1H-1,2,3-triazol-4-yl)pyridin-3-yl)methyl)-4-oxo-1,2,3-benzotriazin-3 (4H)-yl)-L-threo-pentitol], in data set [1], the “activity (%) at 10 μM” value came to 107% and the EC50 was determined as 2.5 nM. The efflux ratio at 1 hr, 1 μM at MDR1 is 9.4.
The like results for `Cc1c(Cc2ccc(-c3ccn(C)n3)nc2)cc2c(=O)n([C@H]3CCOC[C@@H]3O)cnc2c1C` [Example 1, 1,5-anhydro-2,3-dideoxy-3-(7,8-dimethyl-6-((6-(1-methyl-1H-pyrazol-3-yl)pyridin-3-yl)methyl)-4-oxoquinazolin-3(4H)-yl)-L-threo-pentitol] were, in that order, 101%, 2.1 nM and 4.7.
The like results for `Cc1c(Cc2ccc(C(=O)NC3CCOC3)cc2)cc2c(=O)n([C@H]3CCOC[C@@H]3O)cnc2c1C` (stereo partly drawn) [Example 33, 1,5-anhydro-2,3-dideoxy-3-(7,8-dimethyl-4-oxo-6-(4-(tetrahydrofuran-3-ylcarbamoyl)benzyl)quinazolin-3 (4H)-yl)-L-threo-pentitol] were, in that order, 111%, 1.8 nM and 20.
In the case of `Cc1c(Cc2ccc(C(=O)NCC(C)(C)O)cc2)cc2c(=O)n([C@H]3CCOC[C@@H]3O)cnc2c1C` [Example 39, 1,5-anhydro-2,3-dideoxy-3-(6-(4-((2-hydroxy-2-methylpropyl)carbamoyl)benzyl)-7,8-dimethyl-4-oxoquinazolin-3 (4H)-yl)-L-threo-pentitol], in data set [1], the “activity (%) at 10 μM” value turned out to be 112% and the EC50 was 3.3 nM.
As to `Cc1ccc(Cc2cc3c(=O)n([C@H]4CCOC[C@@H]4O)cnc3c(C)c2C)cn1` [Example 7, 1,5-anhydro-2,3-dideoxy-3-(7,8-dimethyl-6-((6-methylpyridin-3-yl)methyl)-4-oxoquinazolin-3(4H)-yl)-L-threo-pentitol], the efflux ratio at 1 hr, 1 μM on MDR1 stood at 3.5.
Still for that read-out and setting: in the case of `Cc1c(Cc2ccc(C(=O)NC3(C)COC3)cc2)cc2c(=O)n([C@H]3CCOC[C@@H]3O)cnc2c1C` [Example 26, 1,5-anhydro-2,3-dideoxy-3-(7,8-dimethyl-6-(4-((3-methyloxetan-3-yl)carbamoyl)benzyl)-4-oxoquinazolin-3(4H)-yl)-L-threo-pentitol] it was 24; in that of `Cc1c(Cc2ccc(C(=O)NC3CC(F)C3)cc2)cc2c(=O)n([C@H]3CCOC[C@@H]3O)cnc2c1C` (stereo partly drawn) [Example 46, 1,5-anhydro-2,3-dideoxy-3-(6-(4-((3-fluorocyclobutyl)-carbamoyl)benzyl)-7,8-dimethyl-4-oxoquinazolin-3 (4H)-yl)-L-threo-pentitol], 18; in that of `Cc1c(Cc2ccc(C(=O)NCCF)cc2)cc2c(=O)n([C@H]3CCOC[C@@H]3O)cnc2c1C` [Example 37, 1,5-anhydro-2,3-dideoxy-3-(6-(4-((2-fluoroethyl)carbamoyl)benzyl)-7,8-dimethyl-4-oxoquinazolin-3 (4H)-yl)-L-threo-pentitol], 12.
